Assay results reported in US20070123491A1, “Podophyllotoxin derivatives as igf-1r inhibitors” (BIOVITRUM AB, priority 2003, published 2007).

How the values were obtained:
[1] = tested on: fibroblast growth factor receptor (FGFR); test: Tyrosine phosphorylation of FGFR in intact FM55 melanoma cells; assay type: cell-based, human; conditions: Experiment 3, 0.7 μM, 1 h, control = 100%
Protocol: (§1) Cells were cultured to subconfluency in 6-cm plates, and then fresh medium containing 10% FBS and the desired compounds were added for 1 h. The cells were then lyzed and subjected to immunoprecipitation using specific antibodies. Immunoprecipitates were resolved by sodium dodecyl sulphate polyacrylamide gel electrophoresis (SDS-PAGE) and transferred to nitro-cellulose membranes and incubated with anti-phosphotyrosine antibody. Antibodies to actin (in cell extract) or IGF-1R beta subunit were used as loading controls. After detection the films were scanned for quantification.
(§2) The isolated cells were then lyzed in 10 ml ice-cold PBSTDS containing protease inhibitors (Carlberg, M., et al., J Biol Chem 271:17453-17462, 1996). 50 μl protein A or G agarose was added in 1 ml sample and incubated for 15 min at 4° C. on an orbital shaker. […] The protein content was determined by a dye-binding assay with a reagent purchased from Bio-Rad. […]
(§3) Following SDS-PAGE the proteins were transferred overnight to nitro-cellulose membranes (Hybond, Amersham, UK) and then blocked for 1 h at room temperature in a solution of 4% skimmed milk powder and 0.02% Tween 20 in PBS, pH 7.5. […] After another 3 washes the membranes were incubated with Streptavidin-labelled horseradish peroxidase for 30 min and then detected using Amersham ECL system (Amersham, UK). […]

[2] = tested on: platelet-derived growth factor receptor (PDGFR); test: Tyrosine phosphorylation of PDGFR in intact FM55 melanoma cells; assay type: cell-based, human; conditions: Experiment 3, 0.7 μM, 1 h, control = 100%
Protocol: as §1, §2, §3

[3] = target: T1, epidermal growth factor receptor (EGFR) (Homo sapiens, UniProt P00533); test: Tyrosine phosphorylation of EGFR in intact FM55 melanoma cells; assay type: cell-based; conditions: Experiment 3, 0.7 μM, 1 h, control = 100%
T1 construct: endogenous in cells; host or cells: FM55 human melanoma cells
Protocol: as §1, §2, §3

insulin receptor (IR) = target: T2, insulin receptor (IR) (Homo sapiens, UniProt P06213); test: Tyrosine phosphorylation of IR in intact FM55 melanoma cells; assay type: cell-based; conditions: Experiment 3, 0.7 μM, 1 h, control = 100%
T2 construct: endogenous in cells; host or cells: FM55 human melanoma cells
Protocol: as §1, §2, §3

[4] = tested on: insulin substrate-1 (IRS-1); test: Tyrosine phosphorylation of IRS-1 in intact FM55 melanoma cells; assay type: cell-based, human; conditions: Experiment 3, 0.7 μM, 1 h, control = 100%
Protocol: as §1, §2, §3

[5] = target: T3, IGF-1R from P6 cell extract (Homo sapiens, UniProt P08069); test: In vitro tyrosine kinase assay: IGF-1R-catalyzed pTG substrate phosphorylation; assay type: biochemical; conditions: cell-free
T3 construct: expressed in transfected cells; host or cells: P6 cell line (embryonic mouse fibroblasts)
Protocol: (§4) IGF-1R-catalyzed substrate phosphorylation of polyTyrGlu (pTG) was performed essentially as previously described [Parrizas M., et al., see above, and Blum G., et al., see above]. Immunoprecipitated IR from HepG2, IGF-1R from P6 cell extract and immunodepleted supernatant to assay non-IGF-1R tyrosine kinases. The phosphorylated polymer substrate was probed with a purified phosphotyrosine specific monoclonal antibody conjugated to horseradish peroxidase (HARP). Color was developed with HRP chromogenic substrate o-phenylenediamine dihydrochloride (OPD). The color was quantitated by spectrophotometry (BLISA reader) and reflects the relative amount of tyrosine kinase. The precipitate was immunoblotted with antibodies to IGF-1R and IR to verify the presence of the receptor. Serial dilutions were used to assay the optimal conditions with respect to the amount of IGF-1R and IR. The signal was linear for 30 minutes and was a function of IGF-1R concentration up to 75 ng/well. Briefly, 96 well plates (Immunolon, Nunc) were coated overnight at 4° C. with a mouse monoclonal antibody (LabVision) against the beta-subunit of IGF-1R at a concentration of 1 μg/ml. […]
(§5) We isolated the receptor and determined the effects of 4,5-demethylene-deoxypodophyllotoxin on IGF-1R catalyzed substrate tyrosine phosphorylation and IGF-1R autophosphorylation in-vitro. […]

[6] = target: epidermal growth factor receptor (Homo sapiens, UniProt P00533); test: In vitro tyrosine kinase assay: EGFR substrate phosphorylation; assay type: biochemical; conditions: cell-free; data not shown
[7] = target: T4, insulin receptor (IR from HepG2) (Homo sapiens, UniProt P06213); test: In vitro tyrosine kinase assay: insulin receptor substrate phosphorylation; assay type: biochemical; conditions: cell-free; data not shown
T4 construct: Immunoprecipitated IR from HepG2; endogenous in cells; host or cells: HepG2
Protocol: as §4, §5

non-IGF-1R kinases = test: In vitro tyrosine kinase assay: non-IGF-1R kinases (IGF-1R immunodepleted supernatant); assay type: biochemical; conditions: cell-free; kinases obtained by immunodepletion of IGF-1R; data not shown
Protocol: as §4, §5

IGF-1R [8] = target: T5, IGF-1R (Homo sapiens, UniProt P08069); test: IGF-1R tyrosine autophosphorylation, sandwich ELISA; assay type: biochemical; conditions: cell-free; stronger response by podophyllotoxin
Protocol: IGF-1R tyrosine autophosphorylation was analysed by a sandwich ELISA assay. Briefly, 96-well plates (Immunolon, Nunc) were coated overnight at 4° C. with 1 μg/well of the monoclonal antibody Ab-5 (LabVision) to the IGF-1R beta subunit. The plates were blocked with 1% BSA in PBS Tween for 1 h, then 80 µg/well of total protein lysate from the P6 cell line was added. As a negative control was used total protein lysate from R-cell line. The investigated compounds were added in tyrosine kinase buffer without ATP at room temperature for 30 min, prior to kinase activation with ATP. Kinase assay was performed using the Sigma kit.
We isolated the receptor and determined the effects of 4,5-demethylene-deoxypodophyllotoxin on IGF-1R catalyzed substrate tyrosine phosphorylation and IGF-1R autophosphorylation in-vitro. […] A stronger response was obtained by podophyllotoxin.
Target sequence in this assay (P08069 31-1367): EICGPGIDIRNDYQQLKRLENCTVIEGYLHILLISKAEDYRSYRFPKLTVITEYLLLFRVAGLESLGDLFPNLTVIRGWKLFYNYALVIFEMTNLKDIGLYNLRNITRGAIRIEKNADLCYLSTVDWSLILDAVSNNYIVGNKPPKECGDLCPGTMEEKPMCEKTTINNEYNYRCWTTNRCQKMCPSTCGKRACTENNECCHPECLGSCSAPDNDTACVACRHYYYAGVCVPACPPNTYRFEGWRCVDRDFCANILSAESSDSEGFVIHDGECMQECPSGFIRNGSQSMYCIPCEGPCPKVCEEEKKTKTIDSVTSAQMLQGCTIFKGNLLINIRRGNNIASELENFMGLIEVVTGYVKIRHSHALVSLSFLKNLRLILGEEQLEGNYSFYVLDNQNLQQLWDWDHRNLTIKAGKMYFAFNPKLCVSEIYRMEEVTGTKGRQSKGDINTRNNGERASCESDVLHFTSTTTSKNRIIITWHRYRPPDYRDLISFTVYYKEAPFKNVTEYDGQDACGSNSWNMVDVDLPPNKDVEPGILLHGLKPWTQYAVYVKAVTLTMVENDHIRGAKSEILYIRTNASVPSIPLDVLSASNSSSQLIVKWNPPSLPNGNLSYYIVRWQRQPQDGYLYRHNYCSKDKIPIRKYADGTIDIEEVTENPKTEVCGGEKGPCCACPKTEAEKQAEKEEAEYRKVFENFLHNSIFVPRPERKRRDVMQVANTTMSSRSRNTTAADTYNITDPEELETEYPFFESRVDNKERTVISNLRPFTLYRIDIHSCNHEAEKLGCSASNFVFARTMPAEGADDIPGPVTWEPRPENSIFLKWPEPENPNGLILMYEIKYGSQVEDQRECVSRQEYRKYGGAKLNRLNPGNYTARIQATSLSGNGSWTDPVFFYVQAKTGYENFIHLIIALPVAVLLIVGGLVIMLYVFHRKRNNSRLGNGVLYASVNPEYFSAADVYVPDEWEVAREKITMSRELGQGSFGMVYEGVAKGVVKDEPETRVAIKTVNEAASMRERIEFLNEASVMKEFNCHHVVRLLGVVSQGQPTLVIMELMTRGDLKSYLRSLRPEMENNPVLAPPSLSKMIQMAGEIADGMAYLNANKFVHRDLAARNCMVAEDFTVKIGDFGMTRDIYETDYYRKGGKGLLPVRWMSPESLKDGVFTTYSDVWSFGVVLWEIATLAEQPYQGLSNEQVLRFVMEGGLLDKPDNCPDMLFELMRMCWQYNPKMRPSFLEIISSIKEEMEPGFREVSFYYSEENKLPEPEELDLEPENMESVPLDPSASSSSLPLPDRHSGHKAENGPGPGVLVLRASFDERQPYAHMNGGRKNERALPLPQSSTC

IGF-1R [9] = target: T5, IGF-1R; test: Tyrosine phosphorylation of IGF-1R in intact FM55 melanoma cells (immunoprecipitation, Western blot); assay type: cell-based; parameters: endogenous in cells; host or cells: FM55 human melanoma cells; conditions: 0.7 μM, 1 h; for Level of IGF-1R phosphorylation in intact cells (% OD): Experiment 1, FM55 melanoma cells, control OD = 100%; for Level of phosphorylation in intact cells (% OD), substrate IGF-1R: Experiment 3, FM55 cells, control = 100%
Protocol: as §1
Target sequence in this assay (P08069 31-1367): as above
The isolated cells were then lyzed in 10 ml ice-cold PBSTDS containing protease inhibitors (Carlberg, M., et al., J Biol Chem 271:17453-17462, 1996). 50 μl protein A or G agarose was added in 1 ml sample and incubated for 15 min at 4° C. on an orbital shaker. After centrifugation for 10 min at 10,000 r/min at 4° C. the supernatant was saved. The protein content was determined by a dye-binding assay with a reagent purchased from Bio-Rad. Bovine serum albumin was used as a standard. 15 μl Protein G Plus agarose and 5 μl anti-IGF-1R were added. After a 3 h incubation at 4° C. on an orbital shaker the precipitate was collected by pulse centrifugation in a micro centrifuge at 14,000×g for 10 s. The supernatant was discarded and the pellet was washed 3 times with PBSTDS.
Protein samples were solved in a 2×-sample buffer containing Laemmli buffer and 0.5% […] and boiled for 5 min at 96° C. Samples were separated by SDS-PAGE with a 4% stacking gel and 7.5% separation gel. Molecular weight markers (Bio Rad, Sweden) were run simultaneously in all experiments.
Following SDS-PAGE the proteins were transferred overnight to nitro-cellulose membranes (Hybond, Amersham, UK) and then blocked for 1 h at room temperature in a solution of 4% skimmed milk powder and 0.02% Tween 20 in PBS, pH 7.5. Incubations with the primary antibodies were performed for 1 h at room temperature, followed by 3 washes with PBS with Tween and incubation with the second antibody for 1 h room temperature. After another 3 washes the membranes were incubated with Streptavidin-labelled horseradish peroxidase for 30 min and then detected using Amersham ECL system (Amersham, UK). The films were scanned by Fluor-S (BioRad).
Melanoma cells (line FM55) were seeded in 6-cm dishes, at a concentration of 10,000 cells/cm2 in Minimal Essential Medium supplemented with 10% fetal calf serum (FCS). […] Phosphorylation of IGF-1R was detected by an anti-phosphotyrosine antibody using Western blotting. […] The intensities are quantified by a scanner, which measures the optical density (OD) of the signals. […]

IGF-1R [10] = target: T5, IGF-1R; test: Effect on IGF-1R (method not given)
isolated IGF-1R kinase = isolated IGF-1R kinase (Homo sapiens, UniProt P08069); conditions: Blum et al., Biochemistry 2000; cited from earlier work
insulin receptor kinase = insulin receptor kinase (Homo sapiens, UniProt P06213); conditions: Blum et al., Biochemistry 2000; cited from earlier work

T3 sequence (P08069 31-1367): as above
T1 sequence (P00533 25-1210): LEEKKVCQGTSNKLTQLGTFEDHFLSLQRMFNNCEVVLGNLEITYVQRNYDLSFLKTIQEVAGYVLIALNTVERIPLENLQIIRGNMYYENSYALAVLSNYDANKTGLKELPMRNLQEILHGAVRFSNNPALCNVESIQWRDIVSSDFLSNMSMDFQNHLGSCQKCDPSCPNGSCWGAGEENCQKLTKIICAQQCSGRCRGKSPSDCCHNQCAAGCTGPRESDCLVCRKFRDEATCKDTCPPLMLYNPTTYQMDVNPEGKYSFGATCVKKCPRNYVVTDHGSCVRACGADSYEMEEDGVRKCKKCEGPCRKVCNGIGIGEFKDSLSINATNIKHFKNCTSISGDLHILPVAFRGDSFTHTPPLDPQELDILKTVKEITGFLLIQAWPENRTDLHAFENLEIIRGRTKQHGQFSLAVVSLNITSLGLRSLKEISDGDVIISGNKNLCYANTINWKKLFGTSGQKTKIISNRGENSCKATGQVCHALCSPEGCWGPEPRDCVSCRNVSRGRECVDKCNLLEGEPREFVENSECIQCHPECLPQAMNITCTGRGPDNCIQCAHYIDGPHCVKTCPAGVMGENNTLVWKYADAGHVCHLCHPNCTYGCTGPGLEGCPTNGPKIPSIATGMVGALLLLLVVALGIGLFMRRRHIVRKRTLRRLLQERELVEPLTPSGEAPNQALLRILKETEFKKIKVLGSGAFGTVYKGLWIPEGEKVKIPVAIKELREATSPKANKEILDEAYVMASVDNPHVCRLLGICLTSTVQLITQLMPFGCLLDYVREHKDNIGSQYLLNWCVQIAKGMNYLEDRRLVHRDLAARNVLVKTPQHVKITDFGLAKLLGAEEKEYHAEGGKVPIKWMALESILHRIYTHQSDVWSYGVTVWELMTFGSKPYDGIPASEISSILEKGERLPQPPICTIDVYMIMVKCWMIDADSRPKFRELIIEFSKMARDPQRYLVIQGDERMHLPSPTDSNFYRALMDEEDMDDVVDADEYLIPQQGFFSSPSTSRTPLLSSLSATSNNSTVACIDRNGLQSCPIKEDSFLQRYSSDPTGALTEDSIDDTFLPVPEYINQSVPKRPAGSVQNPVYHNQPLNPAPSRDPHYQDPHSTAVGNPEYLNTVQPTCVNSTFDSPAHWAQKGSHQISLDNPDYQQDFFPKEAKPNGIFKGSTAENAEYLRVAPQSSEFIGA
epidermal growth factor receptor, sequence (P00533 25-1210, species assumed): as the sequence (P00533 25-1210) above
T4 sequence (P06213 28-1382): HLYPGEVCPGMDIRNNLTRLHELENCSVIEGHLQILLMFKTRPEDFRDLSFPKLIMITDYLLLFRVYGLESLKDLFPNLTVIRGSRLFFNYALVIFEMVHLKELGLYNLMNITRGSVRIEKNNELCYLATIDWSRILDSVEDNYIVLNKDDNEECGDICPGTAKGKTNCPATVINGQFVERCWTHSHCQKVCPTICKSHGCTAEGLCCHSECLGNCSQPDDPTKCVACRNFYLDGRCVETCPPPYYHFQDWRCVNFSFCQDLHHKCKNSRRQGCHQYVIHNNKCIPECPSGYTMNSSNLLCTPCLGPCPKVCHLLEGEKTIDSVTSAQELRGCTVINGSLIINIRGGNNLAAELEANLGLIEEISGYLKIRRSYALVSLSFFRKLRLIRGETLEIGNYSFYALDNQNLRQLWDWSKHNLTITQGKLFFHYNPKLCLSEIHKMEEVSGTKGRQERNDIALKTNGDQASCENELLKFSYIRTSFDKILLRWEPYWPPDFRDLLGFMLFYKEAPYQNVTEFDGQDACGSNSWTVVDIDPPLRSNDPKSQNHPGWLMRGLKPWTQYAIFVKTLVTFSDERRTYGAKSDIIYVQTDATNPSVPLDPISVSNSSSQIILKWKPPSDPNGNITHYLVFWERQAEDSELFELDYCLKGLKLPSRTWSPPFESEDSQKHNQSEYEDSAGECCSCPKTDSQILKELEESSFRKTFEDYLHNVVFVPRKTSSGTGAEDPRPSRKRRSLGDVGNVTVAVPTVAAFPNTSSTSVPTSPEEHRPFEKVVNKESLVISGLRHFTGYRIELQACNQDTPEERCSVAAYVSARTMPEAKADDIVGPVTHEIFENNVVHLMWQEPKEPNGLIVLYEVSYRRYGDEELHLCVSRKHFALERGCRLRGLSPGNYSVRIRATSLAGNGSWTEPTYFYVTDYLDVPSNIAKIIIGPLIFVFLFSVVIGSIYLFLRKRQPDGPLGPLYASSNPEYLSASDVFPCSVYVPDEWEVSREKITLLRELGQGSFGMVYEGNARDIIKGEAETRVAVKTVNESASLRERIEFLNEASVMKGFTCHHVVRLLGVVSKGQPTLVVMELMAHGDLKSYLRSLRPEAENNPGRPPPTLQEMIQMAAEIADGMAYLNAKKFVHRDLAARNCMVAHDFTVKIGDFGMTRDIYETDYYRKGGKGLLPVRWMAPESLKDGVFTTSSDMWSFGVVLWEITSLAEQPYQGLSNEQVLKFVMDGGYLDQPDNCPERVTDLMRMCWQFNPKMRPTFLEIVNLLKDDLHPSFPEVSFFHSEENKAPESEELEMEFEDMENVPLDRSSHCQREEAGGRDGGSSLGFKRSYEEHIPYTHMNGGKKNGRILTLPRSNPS

| Compound | Level of phosphorylation in intact cells (% OD), substrate FGFR [1] [% OD] | Level of phosphorylation in intact cells (% OD), substrate PDGFR [2] [% OD] | Level of phosphorylation in intact cells (% OD), substrate EGFR [3] [% OD] | Level of phosphorylation in intact cells (% OD), substrate IR (insulin receptor (IR)) [% OD] | Level of phosphorylation in intact cells (% OD), substrate IRS-1 [4] [% OD] | Decrease of pTG substrate phosphorylation by the IGF-1 receptor ([5]; 0.5 μM) | Interference with substrate phosphorylation of epidermal growth factor receptor tyrosine kinase [6] | Interference with substrate phosphorylation of insulin receptor tyrosine kinase [7] | Interference with substrate phosphorylation of other non-IGF-1R kinases (non-IGF-1R kinases) | Inhibition of autophosphorylation of IGF-1R in vitro (IGF-1R [8]) | Level of IGF-1R phosphorylation in intact cells (% OD) (IGF-1R [9]) | Level of phosphorylation in intact cells (% OD), substrate IGF-1R (IGF-1R [9]) [% OD] | Effect on IGF-1R substrate phosphorylation [5] | Effect on IGF-1R (IGF-1R [10]) | IC50 (isolated IGF-1R kinase) [nM] | Effect on insulin receptor kinase (insulin receptor kinase) |
| --- | --- | --- | --- | --- | --- | --- | --- | --- | --- | --- | --- | --- | --- | --- | --- | --- |
| COc1cc(C2c3cc(O)c(O)cc3CC3COC(=O)C32)cc(OC)c1OC (stereo not drawn) [4,5-demethylene-deoxypodophyllotoxin] | 104 | 99 | 100 | 102 | 70 | about 35% | failed to interfere | failed to interfere | failed to interfere | inhibited | 73 | 65 | – | – | – | – |
| COc1cc([C@@H]2c3cc4c(cc3[C@H](O)[C@H]3COC(=O)[C@H]23)OCO4)cc(OC)c1OC [Podophyllotoxin, podophyllotoxin] | 99 | 101 | 102 | 103 | 9 | – | had only effect on IGF-1R | had only effect on IGF-1R | had only effect on IGF-1R | inhibited | 10 | 12 | had only effect on IGF-1R | – | – | – |
| COc1cc(C2c3cc4c(cc3C(OC3OC5COC(c6ccccc6)OC5C(O)C3O)C3COC(=O)C23)OCO4)cc(OC)c1OC [podophyllotoxin-4,6-O-benzylidene-β-D-glucopyranoside] | – | – | – | – | – | – | – | – | – | – | – | – | – | completely disappeared | – | – |
| N#C/C(=C\c1ccc(O)c(O)c1)C(=O)c1ccc(O)c(O)c1 [tyrphostin AG 538] | – | – | – | – | – | – | – | – | – | – | – | – | – | – | 400 | blocked |
